Here are results for 27 compounds from patent US9790215B2 (FLATLEY DISCOVERY LAB, LLC, priority 2013, dated 2017).

The experiment addresses T1, human ΔF508-CFTR (Homo sapiens, UniProt P13569, DEL508-508).
T1 construct: expressed in transfected cells
Briefly: CFTR-YFP High Throughput Assay (YFP halide flux in FRT cells). The class given is cell-based. Conditions: FRT cells expressing human ΔF508-CFTR and YFP; for EC50: forskolin stimulated. The protocol: Assays for Detecting and Measuring the Effect of Compounds on dF508-CFTR Channels CFRT-YFP High Throughput Assay:
The following protocol is designed to selectively screen small molecule compounds for F508del CFTR corrector activities in the HTS YFP flux assay. In this protocol, the cells are incubated with testing compounds for 24 hours, washed with PBS, stimulated with forskolin and a standard potentiator, and read on a 384-well HTS plate reader, such as the Hamamatsu FDDD-6000.
YFP fluorescence intensity is acquired at high speed before and after iodide buffer is injected to the assay cells. Iodide enters the cells via active CFTR channels in the plasma membrane, and quenches the YFP fluorescence. The rate of fluorescence quenching is proportionally related to the total CFTR activities in the cell membrane. dF508-CFTR corrector accelerates YFP quenching by increasing the number of CFTR molecules in the testing cell plasma membrane.
This method was initially developed for bench top plate readers (Galietta et al., 2001), and was adapted to the HTS format (Sui et al. Assay Drug Dev. Technol. 2010).
Fisher Rat Thyroid (FRT) cells stably expressing both human AF508-CFTR and a halide-sensitive yellow fluorescent protein (YFP—H148Q/1152L 25, 22) (Galietta et al., Am. J. Physiol Cell Physiol 281(5), C1734, 2001) were cultured on plastic surface in Coon's modified Ham's F12 medium supplemented with FBS 10%, L-glutamine 2 mM, penicillin 100 U/mL, and streptomycin 100 μg/mL. G418 (0.75-1.0 mg/mL) and zeocin (3.2 ug/mL) were used for selection of FRT cells expressing ΔF508-CFTR and YFP. For primary screening, FRT cells were plated into 384-well black wall, transparent bottom microtiter plates (Costar; Corning Inc.) at a cell density of 20,000-40,000 per well. Test compound was applied to the cells at varying concentrations ranging from […] in either a 2-fold or 3-fold dilution series. Cells were incubated in a cell culture incubator at 37° C. with 5% CO2 for 24-26 h. Assay plates were washed with DPBS media (Thermo, cat# SH30028.02) to remove unbound cells and compound. Stimulation media (25 μL) containing 20 μM Forskolin & 30 μM P3 [6-(Ethyl-phenyl-sulfonyl)-4-oxo-1,4-dihydro-quinoline-3-carboxylic acid 2-methoxy-benzylamide] in Hams F-12 coon's modified media was added to the plate wells and incubated at room temperature for 60-120 min. 25 μL of HEPES-PBS-I buffer (10 mM HEPES, 1 mM MgCl2, 3 mM KCl, 1 mM CaCl2, 150 mM NaI) was then added and fluorescence quench curves (Excitation 500 nm/Emission 540 nm; exposure 136 ms) were immediately recorded on an FDSS-6000 plate reader (Hamamatsu). Quench rates were derived from least squares fitting of the data as described by Sui et al., (2010).
The following protocol is designed to selectively screen small molecule compounds for F508del CFTR potentiator activities in the HTS YFP flux assay. In this protocol, the cells are incubated at 27 C for 24 hours with homogeneously boosted dF508-CFTR expression in the cell membrane by the low temperature, washed with PBS, stimulated with forskolin, and read on a 384-well HTS plate reader, such as the Hamamatsu FDDD-6000.
YFP fluorescence intensity is acquired at high speed before and after iodide buffer is injected to the assay cells. Iodide enters the cells via active CFTR channels in the plasma membrane, and quenches the YFP fluorescence. The rate of fluorescence quenching is proportionally related to the total CFTR activities in the cell membrane. dF508del-CFTR potentiators accelerate YFP quenching by increasing CFTR activities in the testing cell plasma membrane.
Fisher Rat Thyroid (FRT) cells stably expressing both human ΔF508-CFTR and a halide-sensitive yellow fluorescent protein (YFP-H148Q/I152L 25, 22) (Galietta et al., Am. J. Physiol Cell Physiol 281(5), C1734, 2001) were cultured on plastic surface in Coon's modified Ham's F12 medium supplemented with FBS 10%, L-glutamine 2 mM, penicillin 100 U/mL, and streptomycin 100 μg/mL. […]

T1 sequence (P13569 with tags, fused parts or gaps DEL508-508): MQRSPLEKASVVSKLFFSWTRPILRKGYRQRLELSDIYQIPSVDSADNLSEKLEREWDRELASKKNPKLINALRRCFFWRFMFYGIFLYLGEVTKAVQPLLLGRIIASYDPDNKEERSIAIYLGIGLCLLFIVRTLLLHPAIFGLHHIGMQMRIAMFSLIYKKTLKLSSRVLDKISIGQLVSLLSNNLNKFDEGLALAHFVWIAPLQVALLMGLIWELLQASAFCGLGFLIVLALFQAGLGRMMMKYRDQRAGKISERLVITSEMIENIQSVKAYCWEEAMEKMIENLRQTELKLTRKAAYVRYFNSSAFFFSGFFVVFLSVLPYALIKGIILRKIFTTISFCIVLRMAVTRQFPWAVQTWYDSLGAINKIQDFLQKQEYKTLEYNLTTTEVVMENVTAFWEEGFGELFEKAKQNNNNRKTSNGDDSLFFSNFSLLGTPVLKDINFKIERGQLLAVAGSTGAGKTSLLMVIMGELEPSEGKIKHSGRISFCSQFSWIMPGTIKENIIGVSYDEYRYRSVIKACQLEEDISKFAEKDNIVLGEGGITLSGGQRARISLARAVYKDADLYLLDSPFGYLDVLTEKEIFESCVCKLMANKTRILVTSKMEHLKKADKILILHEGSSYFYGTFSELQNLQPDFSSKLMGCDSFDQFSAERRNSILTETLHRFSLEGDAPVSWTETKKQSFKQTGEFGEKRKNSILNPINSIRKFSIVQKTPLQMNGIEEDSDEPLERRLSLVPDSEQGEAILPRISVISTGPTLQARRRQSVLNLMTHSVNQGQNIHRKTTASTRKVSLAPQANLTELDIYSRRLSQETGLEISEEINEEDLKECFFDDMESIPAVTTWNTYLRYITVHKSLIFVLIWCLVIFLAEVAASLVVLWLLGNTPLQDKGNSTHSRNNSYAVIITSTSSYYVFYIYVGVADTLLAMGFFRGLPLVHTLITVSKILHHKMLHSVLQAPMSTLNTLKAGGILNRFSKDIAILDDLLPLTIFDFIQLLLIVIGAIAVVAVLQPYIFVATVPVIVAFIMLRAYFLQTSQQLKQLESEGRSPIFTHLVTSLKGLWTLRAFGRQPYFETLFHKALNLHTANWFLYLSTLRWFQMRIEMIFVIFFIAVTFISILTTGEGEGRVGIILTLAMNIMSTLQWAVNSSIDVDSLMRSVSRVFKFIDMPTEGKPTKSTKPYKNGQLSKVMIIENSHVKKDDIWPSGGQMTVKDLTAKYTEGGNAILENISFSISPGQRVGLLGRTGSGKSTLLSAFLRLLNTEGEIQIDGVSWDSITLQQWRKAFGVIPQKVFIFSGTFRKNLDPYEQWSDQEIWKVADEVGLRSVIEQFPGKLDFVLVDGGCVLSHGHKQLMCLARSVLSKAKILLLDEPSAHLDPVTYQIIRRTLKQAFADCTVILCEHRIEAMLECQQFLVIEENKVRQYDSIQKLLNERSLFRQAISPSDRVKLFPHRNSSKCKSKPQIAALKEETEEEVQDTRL

A word on the EC50: it is the concentration at which the effect is half-maximal. For the compound “2-(4-(3-aminophenyl)-1-oxophthalazin-2(1H)-yl)-N-ethyl-N-(4-ethylphenyl)acetamide [Example 7]”, the “% Efficacy (Emax normalized to the positive control)” value is “++ (a range of 80%-30%)” and the EC50 is more than 20 µM.
On the same counts, the results for “2-(4-(3-chlorophenyl)-1-oxophthalazin-2(1H)-yl)-N-(2,2-difluorobenzo[d][1,3]dioxol-5-yl)-N-ethylacetamide [Example 21]” are “+++ (EMAX > 80%)” and less than 10 µM.
In the case of “2-(4-(3-cyanophenyl)-1-oxophthalazin-2(1H)-yl)-N-(2,2-difluorobenzo[d][1,3]dioxol-5-yl)-N-ethylacetamide [Example 20]”, the “% Efficacy (Emax normalized to the positive control)” value is given as “++ (a range of 80%-30%)” and the EC50 was more than 20 µM.
Turning to “2-(4-(3-cyanophenyl)-1-oxophthalazin-2(1H)-yl)-N-ethyl-N-(4-ethylphenyl)acetamide [Example 16]”, the “% Efficacy (Emax normalized to the positive control)” value was “++ (a range of 80%-30%)” and the concentration giving a half-maximal response (EC50) is less than 10 µM.
Take “2-(4-(benzo[d][1,3]dioxol-4-yl)-1-oxophthalazin-2(1H)-yl)-N-ethyl-N-(4-ethylphenyl)acetamide [Example 9]”: the “% Efficacy (Emax normalized to the positive control)” value was “+ (a range of 30%-10%)” and the EC50 was less than 10 µM.
Regarding “3-(3-(2-(ethyl(4-ethylphenyl)amino)-2-oxoethyl)-4-oxo-3,4-dihydrophthalazin-1-yl)benzamide [Example 10]”, the “% Efficacy (Emax normalized to the positive control)” value was “+ (a range of 30%-10%)” and the half-maximal effective concentration (EC50) is more than 20 µM.
The like results for “4-(3-(2-((2,2-difluorobenzo[d][1,3]dioxol-5-yl)(ethyl)amino)-2-oxoethyl)-4-oxo-3,4-dihydro-phthalazin-1-yl)benzamide [Example 18]” were, in that order, “+++ (EMAX > 80%)” and 10 to 20 µM.
For the compound “4-(3-(2-((2,2-difluorobenzo[d][1,3]dioxol-5-yl)(ethyl)amino)-2-oxoethyl)-4-oxo-3,4-dihydrophthalazin-1-yl)benzoic acid [Example 19]”, the “% Efficacy (Emax normalized to the positive control)” value is given as “+++ (EMAX > 80%)” and the 50% effective concentration (EC50) was in the range of 10 to 20 µM.
The like results for “4-(3-(2-(ethyl(4-ethylphenyl)amino)-2-oxoethyl)-4-oxo-3,4-dihydrophthalazin-1-yl)benzamide [Example 11]” were, in that order, “++ (a range of 80%-30%)” and 10 to 20 µM.
As for “4-(3-(2-(ethyl(4-ethylphenyl)amino)-2-oxoethyl)-4-oxo-3,4-dihydrophthalazin-1-yl)benzoic acid [Example 13]”, the “% Efficacy (Emax normalized to the positive control)” value was “++ (a range of 80%-30%)” and the concentration giving a half-maximal response (EC50) was 10 to 20 µM.
For the compound `CCc1ccc(N(CC)C(=O)Cn2nc(-c3ccccc3)c3ccccc3c2=O)cc1` [Example 1, N-ethyl-N-(4-ethylphenyl)-2-(1-oxo-4-phenylphthalazin-2(1H)-yl)acetamide], the EC50 fell in the range of 10 to 20 µM.
Same read-out and setting: the value for `CCc1ccc(N(CC)C(=O)Cn2nc(-c3ccc(O)cc3)c3ccccc3c2=O)cc1` [Example 2, N-ethyl-N-(4-ethylphenyl)-2-(4-(4-hydroxyphenyl)-1-oxophthalazin-2(1H)-yl)acetamide] was less than 10 µM.
In the case of `CCc1ccc(N(CC)C(=O)Cn2nc(-c3cccnc3)c3ccccc3c2=O)cc1` [Example 3, N-ethyl-N-(4-ethylphenyl)-2-(1-oxo-4-(pyridin-3-yl)phthalazin-2(1H)-yl)acetamide], the EC50 was more than 20 µM.
With `CCc1ccc(N(CC)C(=O)Cn2nc(-c3ccncc3)c3ccccc3c2=O)cc1` [Example 4, N-ethyl-N-(4-ethylphenyl)-2-(1-oxo-4-(pyridin-4-yl)phthalazin-2(1H)-yl)acetamide], the EC50 is more than 20 µM.
The same measure, in the same setting: to `CCc1ccc(N(CC)C(=O)Cn2nc(-c3cccc4ncccc34)c3ccccc3c2=O)cc1` [Example 5, N-ethyl-N-(4-ethylphenyl)-2-(1-oxo-4-(quinolin-5-yl)phthalazin-2(1H)-yl)acetamide] belongs 10 to 20 µM.
Same read-out and setting: to `CCc1ccc(N(CC)C(=O)Cn2nc(-c3cccc4cnccc34)c3ccccc3c2=O)cc1` [Example 6, N-ethyl-N-(4-ethylphenyl)-2-(4-(isoquinolin-5-yl)-1-oxophthalazin-2(1H)-yl)acetamide] belongs less than 10 µM; to `CCN(C(=O)Cn1nc(-c2cccnc2)c2ccccc2c1=O)c1ccc2c(c1)OC(F)(F)O2` [Example 24], more than 20 µM.
On the same count and under the same terms, the value for `CCc1ccc(N(CC)C(=O)Cn2nc(Cc3cccnc3)c3ccccc3c2=O)cc1` [Example 25, N-ethyl-N-(4-ethylphenyl)-2-(1-oxo-4-(pyridin-3-ylmethyl)phthalazin-2(1H)-yl)acetamide] was less than 10 µM.
In the case of `CCN(C(=O)Cn1nc(Cc2cccnc2)c2ccccc2c1=O)c1ccc2c(c1)OC(F)(F)O2` [Example 26, N-(2,2-difluorobenzo[d][1,3]dioxol-5-yl)-N-ethyl-2-(1-oxo-4-(pyridin-3-ylmethyl)phthalazin-2(1H)-yl)acetamide], the half-maximal effective concentration (EC50) is less than 10 µM.
Still for that read-out and setting: the value for `COc1ccc(N(C)C(=O)Cn2nc(Cc3cccnc3)c3ccccc3c2=O)cc1` [Example 27, N-(4-methoxyphenyl)-N-methyl-2-(1-oxo-4-(pyridin-3-ylmethyl)phthalazin-2(1H)-yl)acetamide] was less than 10 µM.
On the same count and under the same terms, to `CCc1ccc(N(CC)C(=O)Cn2nc(Cc3cccnc3)c3ccc(C)cc3c2=O)cc1` [Example 28, N-ethyl-N-(4-ethylphenyl)-2-(7-methyl-1-oxo-4-(pyridin-3-ylmethyl)phthalazin-2(1H)-yl)acetamide] belongs less than 10 µM; to `CCc1ccc(N(CC)C(=O)Cn2nc(Cc3cccnc3)c3cc(C)ccc3c2=O)cc1` [Example 29, N-ethyl-N-(4-ethylphenyl)-2-(6-methyl-1-oxo-4-(pyridin-3-ylmethyl)phthalazin-2(1H)-yl)acetamide], less than 10 µM.
On the same count and under the same terms, the value for `CCc1ccc(N(CC)C(=O)Cn2nc(Cc3cccnc3)c3cccc(C)c3c2=O)cc1` [Example 30, N-ethyl-N-(4-ethylphenyl)-2-(8-methyl-1-oxo-4-(pyridin-3-ylmethyl)phthalazin-2(1H)-yl)acetamide] was less than 10 µM; that for `CCc1ccc(N(CC)C(=O)Cn2nc(Cc3cccnc3)c3c(C)cccc3c2=O)cc1` [Example 31, N-ethyl-N-(4-ethylphenyl)-2-(5-methyl-1-oxo-4-(pyridin-3-ylmethyl)phthalazin-2(1H)-yl)acetamide] was less than 10 µM.
As to `CCc1ccc(N(CC)C(=O)Cn2nc(Cc3cccnc3)c3cc(OC)c(OC)cc3c2=O)cc1` [Example 32, 2-(6,7-dimethoxy-1-oxo-4-(pyridin-3-ylmethyl)phthalazin-2(1H)-yl)-N-ethyl-N-(4-ethylphenyl)acetamide], the 50% effective concentration (EC50) is less than 10 µM.
Regarding `CCc1ccc(N(CC)C(=O)Cn2nc(Cc3cccnc3)c3ccc(C(C)(C)C)cc3c2=O)cc1` [Example 33, 2-(7-(tert-butyl)-1-oxo-4-(pyridin-3-ylmethyl)phthalazin-2(1H)-yl)-N-ethyl-N-(4-ethylphenyl)acetamide], the concentration for a half-maximal effect (EC50) is less than 10 µM.
Still for that read-out and setting: to `CCc1ccc(N(CC)C(=O)Cn2nc(Cc3cccnc3)c3cc(C(C)(C)C)ccc3c2=O)cc1` [Example 34, 2-(6-(tert-butyl)-1-oxo-4-(pyridin-3-ylmethyl)phthalazin-2(1H)-yl)-N-ethyl-N-(4-ethylphenyl)acetamide] belongs less than 10 µM.
